Reference: US7199130B2, “Substituted 5,6,6a, 11b-tetrahydro-7-oxa-5-aza-benzo[c]fluorene-6-carboxylic acid compounds as NMDA-antagonists” (Gruenenthal GmbH, priority 2001, dated 2007)

Tests used:
[1] = system: formaldehyde-induced nociception; assay: Formaldehyde test, rat (second phase); assay type: in vivo; conditions: iv, male Sprague-Dawley rats, second (late) phase of formaldehyde test, pain rate vs vehicle control
Procedure: The investigations to determine the antinociceptive action of the compounds according to the invention of the formula I were carried by the formaldehyde test on male rats (Sprague-Dawley, 150–170 g). In the formaldehyde test, a distinction is drawn between the first (early) phase (0–15 min after formaldehyde injection) and the second (later) phase (15–60 min after formaldehyde injection) (D. Dubuisson, S. G. Dennis, Pain 4, 161–174 (1977)). […]
A nociceptive reaction was induced in the freely mobile test animals by a single, subcutaneous formaldehyde injection (50 μl, 5%) into the dorsal side of the rear hind paw, the reaction being classed according to one of the following behavioral parameters: lifting and holding up the affected paw (score 1), shaking or twitching (score 2), licking and biting (score 3). The differential behavior induced by the formaldehyde injection was recorded by observing the animals in the late phase of the formaldehyde test and assigned a variable weighting in the evaluation. Normal behavior, in which the animal places an even load on all four paws, was recorded as a score of 0. […] The nociceptive behavior was calculated as a “pain rate” (PR). […] On the basis of the calculated PR values, the effect of the substance was determined as a percentage change relative to the control. […]

[2] = target: T1, glycine-binding site of the NMDA receptor channel (Rattus norvegicus, UniProt P35439); assay: Receptor binding (glycine-binding site of the NMDA receptor channel), displacement of (3H)-MDL 105.519
T1 construct: from tissue; host or cells: rat brain cortex and hippocampus membrane homogenate (male Wistar)
Procedure: Receptor Binding (Glycine-Binding Site of the NMDA Receptor Channel)
The investigation for determining the affinity of the compounds according to the invention of the formula I towards the glycine-binding site of the NMDA receptor channel was performed on brain membrane homogenates (homogenate of the cortex and hippocampus area from male rat brain, Wistar strain) [B. M. Baron, B. W. Siegel, B. L. Harrison, R. S. Gross, C. Hawes and P. Towers, Journal of Pharmacology and Experimental Therapeutics, vol. 279, p. 62, 1996].
To this end, the cortex and hippocampus were dissected out of freshly harvested rat brains and homogenized with ice cooling in 5 mmol/l of TRIS-acetate buffer, 0.32 mol/l of sucrose, pH 7.4 (10 ml/g fresh weight) using a Potter homogenizer (Braun/Melsungen, 10 piston strokes at 500 rpm) and then centrifuged for 10 minutes at 1,000 g and 4° C. […] This membrane homogenate was used in the receptor binding test in a quantity of 100 μl per 1 ml batch (0.1 mg of protein/ml in the final batch). […] The level of non-specific binding was determined in the presence of 1 mmol/l of glycine.
In further batches, the compounds according to the invention were added in concentration series and the displacement of the radioactive ligand from its specific binding at the glycine-binding site of the NMDA receptor channel was determined. […]

With O=C(O)C1Nc2cc(Cl)cc(Cl)c2C2c3ccccc3OC12 (stereo not drawn) [Example 1, 1,3-Dichloro-5,6,6a,11b-tetrahydro-7-oxa-5-aza-benzo [c]fluorene-6-carboxylic acid] the ED50 [1] was 7.27 mg/kg, the “Glycine-binding site of the NMDA receptor channel Displacement” value ([2]; 10 μmol/l of substance, displacement of (3H)-MDL 105.519 from specific binding, rat brain membranes) was 100% and the Ki ([2]; rat cortex and hippocampus membrane homogenate, ligand 1 nmol/l (3H)-MDL 105.519, converted from IC50 by Cheng-Prussoff, mean of three independent tests) was 53 nM.
